Experiments:
[1] = tested on: VEGF expression in 786-O cells; test: VEGF ELISA assay in 786-O cells; format: cell-based; details: about 48 hours incubation
Experimental: 100×DMSO stock solution dissolved with the drug was prepared in assay medium (RPMI-1640 containing 2% FBS; FBS: 10099141C, Gibco; RPMI-1640: 12440053, Gibco) to formulate a series of dilutions of 10×compounds. To a clear flat-bottom 96-well plate (3599, Corning) was added 20 μL of the 10×compound dilution. Then approximately 40,000 786-O cells (ATCC®CRL-1932™) in 180 μL of culture medium were seeded into the 96-well plate. The final concentration of DMSO (D2650, Sigma) in each well was 0.1%. After incubating in the incubator for about 48 hours, 100 μL of the upper medium from each well was pipetted and placed in a new 96-well plate (3799, Corning). An ELISA kit (DY293B, R&D Systems) was used. The concentration of VEGF was determined according to the OD value of each well at […] detected by a microplate reader. EC50 values were calculated by GraphPad Prism software using the dose-response-inhibition (four parameter) equation.

[2] = tested on: HIF response element(HRE)-dependent luciferase in 786-O-HRE-Luc cells; test: Luciferase assay in 786-O-HRE-Luc cells; format: cell-based; details: approximately 24 hours incubation
Experimental: 786-O-HRE-Luc cells were obtained by infecting 786-O (ATCC®CRL-1932™) cells purchased from ATCC with commercial lentivirus. Appropriate 786-O-HRE-Luc single cell clones were screened, expanded, and used for the subsequent luciferase assay. For the luciferase assay, 100×DMSO stock solution dissolved with the drug was prepared in assay medium (RPMI-1640 containing 2% FBS; FBS: 10099141C, Gibco; RPMI-1640: 12440053, Gibco) to formulate a series of dilutions of 10×compounds. To a clear flat-bottom 96-well plate (3599, Corning) was added 20 μL of the 10×compound dilution. Then approximately 100,000 786-O-HRE-Luc cells in 180 μL of culture medium were seeded into the 96-well plate. The final concentration of DMSO (D2650, Sigma) in each well was 0.1%. After approximately 24 hours of incubation in the incubator, luciferase activity was determined using the Dual-Luciferase Reporter Assay System (E1960, Promega) reagent following the manufacturer's recommended method. EC50 values were calculated by GraphPad Prism software using the dose-response-inhibition (four parameter) equation.

[3] = Pharmacokinetic test in SD rats by gavage
Experimental: animals: SD rats, male, 200 to 220 g, purchased from Shanghai Jiesijie Laboratory Animal Co., Ltd.
The SD rats in each test compound group (3 rats in each group) were fasted overnight and then intragastrically administered the compounds (PO, administration dosage of 10 mg/kg or 5 mg/kg, administration volume of 10 mL/kg), and given food 4 hours after administration.
Approximately 0.2 mL of blood was collected from the jugular vein before administration and 0.083 hours, 0.25 hours, 0.5 hours, 1 hour, 2 hours, 4 hours, 6 hours, 8 hours, and 24 hours after administration, anticoagulated with sodium heparin. Blood samples were placed on ice after collection, and plasma was separated by centrifugation (centrifugation conditions: 1500 g, 10 minutes). The collected plasma was stored at −40° C. to −20° C. before analysis.
LC-MS/MS was used to determine the content of the test compound in rat plasma after intragastric administration.

[4] = male, SD, rat, in vivo, po, 5 mg/kg
[5] = SD rats, male, PO 10 mg/kg, plasma

## N#Cc1cc(F)cc(Oc2ccc3c4c2[C@H](F)[C@@H](F)[C@@]4(O)C(F)(F)S3(=O)=O)c1 [Compound 4-P2]
[1]
  EC50: 54.4 nM
[2]
  EC50: 48.5 nM

## N#Cc1cc(F)cc(Oc2ccc3c4c2[C@@H](F)[C@@H](F)[C@]4(O)C(F)(F)S3(=O)=O)c1 [Compound 4-P3]
[1]
  EC50: 15.2 nM
[2]
  EC50: 6.1 nM

## N#Cc1cncc(Oc2ccc3c4c2[C@@H](F)[C@H](F)[C@]4(O)C(F)(F)S3(=O)=O)c1 [Compound 3-P1]
[1]
  EC50: 180 nM
[2]
  EC50: 67.7 nM

## N#Cc1cncc(Oc2ccc3c4c2[C@H](F)[C@@H](F)[C@@]4(O)C(F)(F)S3(=O)=O)c1 [Compound 3-P2]
[1]
  EC50: 2760 nM
[2]
  EC50: 3990 nM

## CS(=O)(=O)c1ccc(Oc2cc(F)cc(C#N)c2)c2c1[C@H](O)C(F)(F)C2 [PT2385, reference compound]
[3]; [4]
  AUC(0-inf): 843 ng·h/mL
  Cmax: 193 ng/mL

## N#Cc1cc(F)cc(Oc2ccc3c4c2C(F)CC4(O)C(F)(F)S3(=N)=O)c1 (centres unmarked) [Compound 2]
[2]
  EC50: 46 nM

## N#Cc1cc(F)cc(Oc2ccc3c4c2[C@@H](F)[C@H](F)[C@]4(O)C(F)(F)S3(=O)=O)c1 [Compound 4-P1]
[1]
  EC50: 40.5 nM
[2]
  EC50: 19.2 nM

## N#Cc1cncc(Oc2ccc3c4c2[C@H](F)[C@H](F)[C@@]4(O)C(F)(F)S3(=O)=O)c1 [Compound 3-P4]
[1]
  EC50: 4920 nM
[2]
  EC50: 6410 nM

## N=S1(=O)c2ccc(Oc3cc(F)cc(Cl)c3)c3c2C(O)(CC3F)C1(F)F (centres unmarked) [Compound 1]
[1]
  EC50: 115 nM

## N#Cc1cc(F)cc(Oc2ccc3c4c2[C@H](F)[C@H](F)[C@@]4(O)C(F)(F)S3(=O)=O)c1 [Compound 4-P4]
[1]
  EC50: 737 nM
[2]
  EC50: 511 nM

## N#Cc1cncc(Oc2ccc3c4c2[C@@H](F)[C@@H](F)[C@]4(O)C(F)(F)S3(=O)=O)c1 [Compound 3-P3]
[3]; SD rats, PO, 10 mg/kg vs PT2385 5 mg/kg
  Plasma concentration and area under the curve compared with comparative example PT2385: significantly improved plasma concentration and area under the curve
[3]; [5]
  Area under the curve AUC0-∞: 24806 ng·h/mL
  Plasma concentration Cmax: 4646 ng/mL
[1]
  EC50: 30.9 nM
[2]
  EC50: 12.2 nM

From US20240158367A1, “TRICYCLIC COMPOUND AS HIF2-ALPHA INHIBITOR, PREPARATION METHOD THEREFOR AND APPLICATION THEREOF” (SHANGHAI JEMINCARE PHARMACEUTICALS CO., LTD, priority 2021, published 2024)
